In brackets after ≈: the same amount, converted by molar mass. Starred links: 1 amine or outer side, 2 acyl side, 3 side chain; linkers in the order of their positions; H or OH if unused. Non-standard residues stand in square brackets, D forms with d. Residues, ends and D or L forms follow the SMILES beside them. ξ: configuration not given here. Pro(3ξ,4ξ-(CH2)4) = O=C(O)[C@H]1NCC2CCCCC21; X1 = O=C([C@@H]1CN([*:1])C2CCCCC21)[*:2]; X3 = O=C(C[C@H]1C2CCCCC2CN1[*:1])[*:2]; Tic = O=C(O)[C@@H]1Cc2ccccc2CN1; Orn = NCCC[C@H](N)C(=O)O; GABA = NCCCC(=O)O
Tests used:
Format in all cases: functional
Staphylococcus aureus = test: Antimicrobial activity against methicillin-resistant Staphylococcus aureus ATCC 33591 after 24 hrs; details: ATCC 33591, 24 h
Francisella tularensis = test: Antimicrobial activity against Francisella tularensis SCHU-S4 after 24 hrs; details: SCHU-S4, 24 h
Brucella suis = test: Antimicrobial activity against Brucella suis ATCC 23445 after 24 hrs; details: ATCC 23445, 24 h
Bacillus anthracis = test: Antimicrobial activity against Bacillus anthracis Ames after 24 hrs
Yersinia pestis = test: Antimicrobial activity against Yersinia pestis CO92 after 24 hrs; details: CO92, 24 h
Acinetobacter baumannii [1] = test: Antimicrobial activity against Acinetobacter baumannii WRAIR after 24 hrs
Acinetobacter baumannii [2] = test: Antimicrobial activity against Acinetobacter baumannii ATCC 19606 after 24 hrs; details: ATCC 19606 = CIP 70.34 = JCM 6841, 24 h
[3] = system: Burkholderia pseudomallei; test: Antimicrobial activity against Burkholderia pseudomallei BURK003(1026b) after 24 hrs
Brucella melitensis = test: Antimicrobial activity against Brucella melitensis 16 M after 24 hrs
Burkholderia mallei = test: Antimicrobial activity against Burkholderia mallei ATCC 23444 after 24 hrs; details: ATCC 23444, 24 h
Brucella abortus = test: Antimicrobial activity against Brucella abortus 2308 after 24 hrs; details: Brucella abortus, 2308, 24 h

SMILES	MIC (Staphylococcus aureus) [µM]	MIC (Francisella tularensis) [µM]	MIC (Brucella suis) [µM]	MIC (Bacillus anthracis) [µM]	MIC (Yersinia pestis) [µM]	MIC (Acinetobacter baumannii [1]) [µM]	MIC (Acinetobacter baumannii [2]) [µM]	MIC [3] [µM]	MIC (Brucella melitensis) [µM]	MIC (Burkholderia mallei) [µM]	MIC (Brucella abortus) [µM]
C[C@H]1c2cccc(O)c2C(=O)C2=C(O)[C@]3(O)C(=O)C(C(N)=O)=C(O)[C@@H](N(C)C)[C@@H]3[C@@H](O)[C@@H]21 [DOXYCYCLINE]	17.6 (≈ 7.82 µg/mL)	0.09 (≈ 0.04 µg/mL)	0.56 (≈ 0.249 µg/mL)	0.27 (≈ 0.12 µg/mL)	0.56 (≈ 0.249 µg/mL)	0.56 (≈ 0.249 µg/mL)	0.56 (≈ 0.249 µg/mL)	0.09 (≈ 0.04 µg/mL)	0.56 (≈ 0.249 µg/mL)	0.09 (≈ 0.04 µg/mL)	0.56 (≈ 0.249 µg/mL)
CC(=O)NCC(=O)N[C@@H](Cc1ccccc1)C(=O)N[C@@H](Cc1ccccc1)C(=O)N1CC2CCCCC2[C@H]1C(=O)NCC(=O)N[C@@H](CCCCN)C(=O)N[C@@H](Cc1ccccc1)C(=O)N1CC2CCCCC2[C@H]1C(=O)NCC(=O)N[C@@H](Cc1ccccc1)C(=O)N[C@@H](Cc1ccccc1)C(=O)N1CC2CCCCC2[C@@H]1CC(=O)N[C@@H](CCCCN)C(=O)N[C@@H](Cc1ccccc1)C(=O)N[C@@H](CCCCN)C(=O)N[C@@H](CCCCN)C(=O)N[C@@H](CCCCN)C(=O)N[C@@H](CCCCN)C(N)=O (stereo not given in full) (Ac-GFF[Pro(3ξ,4ξ-(CH2)4)]GKF[Pro(3ξ,4ξ-(CH2)4)]GFF[X3]KFKKKK-NH2)	208 (≈ 489 µg/mL)	0.01 (≈ 0.0235 µg/mL)	26 (≈ 61.1 µg/mL)	0.2 (≈ 0.47 µg/mL)	3.2 (≈ 7.52 µg/mL)	3.2 (≈ 7.52 µg/mL)	3.2 (≈ 7.52 µg/mL)	208 (≈ 489 µg/mL)	26 (≈ 61.1 µg/mL)	208 (≈ 489 µg/mL)	26 (≈ 61.1 µg/mL)
CC(=O)NCC(=O)N[C@@H](Cc1ccccc1)C(=O)N1Cc2ccccc2C[C@H]1C(=O)N1C[C@@H](C(=O)NCC(=O)N[C@@H](CCCCN)C(=O)N2Cc3ccccc3C[C@H]2C(=O)N2C[C@@H](C(=O)NCC(=O)N[C@@H](Cc3ccccc3)C(=O)N3Cc4ccccc4C[C@H]3C(=O)N3C[C@@H](C(=O)NCC(=O)N[C@@H](CCCCN)C(=O)N4Cc5ccccc5C[C@H]4C(=O)N[C@@H](CCCN)C(=O)N[C@@H](CCCN)C(=O)N[C@@H](CCCN)C(=O)N[C@@H](CCCN)C(N)=O)C4CCCCC43)C3CCCCC32)C2CCCCC21 (stereo not given in full) (Ac-GF[Tic][X1]GK[Tic][X1]GF[Tic][X1]GK[Tic][Orn][Orn][Orn][Orn]-NH2)	52.4 (≈ 125 µg/mL)	105 (≈ 250 µg/mL)	13 (≈ 31 µg/mL)	0.81 (≈ 1.93 µg/mL)	26.2 (≈ 62.5 µg/mL)	6.5 (≈ 15.5 µg/mL)	6.5 (≈ 15.5 µg/mL)	209 (≈ 498 µg/mL)	104 (≈ 248 µg/mL)	209 (≈ 498 µg/mL)	209 (≈ 498 µg/mL)
CC(C)C[C@H](NC(=O)[C@@H](N)CCCCN)C(=O)N1Cc2ccccc2C[C@H]1C(=O)N1C[C@@H](C(=O)NCC(=O)N[C@@H](CCCCN)C(=O)N2Cc3ccccc3C[C@H]2C(=O)N2C[C@@H](C(=O)N[C@@H](Cc3ccccc3)C(=O)N3Cc4ccccc4C[C@H]3C(=O)N3C[C@@H](C(=O)NCC(=O)N[C@@H](CCCCN)C(=O)N4Cc5ccccc5C[C@H]4C(=O)N4C[C@@H](C(=O)N[C@@H](Cc5ccccc5)C(=O)N5Cc6ccccc6C[C@H]5C(=O)N5C[C@@H](C(=O)NCC(=O)N[C@@H](CCCCN)C(=O)N6Cc7ccccc7C[C@H]6C(=O)N6C[C@@H](C(=O)N[C@@H](CCCCN)C(=O)N[C@@H](CCCCN)C(=O)N[C@@H](CCCCN)C(=O)N[C@@H](CCCCN)C(N)=O)C7CCCCC76)C6CCCCC65)C5CCCCC54)C4CCCCC43)C3CCCCC32)C2CCCCC21 (stereo not given in full) (H-KL[Tic][X1]GK[Tic][X1]F[Tic][X1]GK[Tic][X1]F[Tic][X1]GK[Tic][X1]KKKK-NH2)	17.9 (≈ 62.4 µg/mL)	144 (≈ 502 µg/mL)	144 (≈ 502 µg/mL)	8.97 (≈ 31.2 µg/mL)	144 (≈ 502 µg/mL)	144 (≈ 502 µg/mL)	4.6 (≈ 16 µg/mL)	144 (≈ 502 µg/mL)	144 (≈ 502 µg/mL)	144 (≈ 502 µg/mL)	144 (≈ 502 µg/mL)
CC(=O)NCCCC(=O)N[C@@H](Cc1ccccc1)C(=O)N1Cc2ccccc2C[C@H]1C(=O)N1C[C@@H](C(=O)NCCCC(=O)N[C@@H](CCCCN)C(=O)N2Cc3ccccc3C[C@H]2C(=O)N2C[C@@H](C(=O)NCCCC(=O)N[C@@H](Cc3ccccc3)C(=O)N3Cc4ccccc4C[C@H]3C(=O)N3C[C@@H](C(=O)NCCCC(=O)N[C@@H](CCCCN)C(=O)N4Cc5ccccc5C[C@H]4C(=O)N[C@@H](CCCCN)C(=O)N[C@@H](CCCCN)C(=O)N[C@@H](CCCCN)C(=O)N[C@@H](CCCCN)C(=O)N[C@@H](CCCCN)C(N)=O)C4CCCCC43)C3CCCCC32)C2CCCCC21 (stereo not given in full) (Ac-[GABA]F[Tic][X1][GABA]K[Tic][X1][GABA]F[Tic][X1][GABA]K[Tic]KKKKK-NH2)	46.6 (≈ 125 µg/mL)	186 (≈ 499 µg/mL)	93 (≈ 249 µg/mL)	0.71 (≈ 1.9 µg/mL)	46.6 (≈ 125 µg/mL)	2.9 (≈ 7.78 µg/mL)	5.8 (≈ 15.6 µg/mL)	186 (≈ 499 µg/mL)	46.6 (≈ 125 µg/mL)	186 (≈ 499 µg/mL)	> 186

Reference: ChEMBL document CHEMBL1255229, “Novel antimicrobial peptides that exhibit activity against select agents and other drug resistant bacteria” (2010)
